From US20230331674A1 (priority 2020, published 2023)

What was measured:
[1] = Plasma protein binding, equilibrium dialysis; format: in vitro ADME; conditions: pH 7.4, human plasma, 37° C.
Procedure: The equilibrium dialysis technique was used to separate the fraction of the bound to human plasma protein. The assay was performed in a 96-well format in a dialysis block constructed from Teflon to minimize the unspecific binding (Banker M. J. et al. J. Pharm. Sci. 2003, 92, 967-974). Plasma from human was used as the default protein containing matrix. […] Acebutolol, quinidine and warfarin were tested in each assay as reference compounds, which yield protein binding that represent low, medium and high bindings to human plasma proteins, respectively. The dialysate compartment was loaded with the phosphate buffered saline (PBS, pH 7.4), and the sample side was loaded with equal volume of the spiked protein matrix. The dialysis plate was then sealed and incubated at 37° C. for 4 h. A control sample (n=2) was prepared from the spiked protein matrix in the same manner as the assay sample (without dialysis). The control sample served as the basis for the recovery determination. After the incubation, samples were taken from each compartment, diluted with phosphate buffer followed by addition of acetonitrile and centrifugation. The supernatants were then used for HPLC-MS/MS analysis using selected reaction monitoring. […]
The recovery determination serves as an indicator of reliability of the calculated protein binding value. […]

in vitro = conditions: human, Caco-2
Procedure: (§1) They were grown on Transwell® culture inserts with a polycarbonate membrane (diameter, 12 mm; pore size, 0.4 μm). 50,000 cells/filter membranes were used for seeding and the medium was changed every two days. At day 18, transepithelial electrical resistance (TEER) was measured for each filter with Caco-2 cell monolayers. […] The samples were acidified by dilution with the same volume of 0.01 M HCl before fluorescence measurements.
(§2) Ringer buffer with 10 mM d-glucose or 10 mM mannitol on apical and basolateral side of the tissue, respectively, was used as an incubation saline. […] The experiment started by the addition of stock solutions of (±)-N-((1-benzylpiperidin-3-yl)methyl)-N-(2-methoxyethyl)naphthalene-2-sulfonamide hydrochloride and fluorescein in the donor compartment to provide final 100 μM donor concentration of (±)-N-((1-benzylpiperidin-3-yl)methyl)-N-(2-methoxyethyl)naphthalene-2-sulfonamide and 20 μM fluorescein. The stock solutions were added either to the apical or to the basolateral compartment to obtain bidirectional permeability measurements. Six samples were withdrawn in 20 min intervals. Each time 300 μl was taken from the 1500 μL basolateral acceptor compartment and 100 μL from the 500 μL apical acceptor compartment. These volumes were immediately replaced by the appropriate fresh incubation saline. The concentrations of (±)-N-((1-benzylpiperidin-3-yl)methyl)-N-(2-methoxyethyl)naphthalene-2-sulfonamide in the samples were determined by HPLC-UV immediately after the experiment.

Caco-2 cell monolayers = test: in vitro
Procedure: as §1, §2

[2] = target: mAChE (murine acetylcholinesterase) (Mus musculus (Mouse), UniProt P21836); format: biochemical; conditions: screening at 10 μM; n.i. = no inhibiton
mAChE (murine acetylcholinesterase), sequence (P21836 32-614): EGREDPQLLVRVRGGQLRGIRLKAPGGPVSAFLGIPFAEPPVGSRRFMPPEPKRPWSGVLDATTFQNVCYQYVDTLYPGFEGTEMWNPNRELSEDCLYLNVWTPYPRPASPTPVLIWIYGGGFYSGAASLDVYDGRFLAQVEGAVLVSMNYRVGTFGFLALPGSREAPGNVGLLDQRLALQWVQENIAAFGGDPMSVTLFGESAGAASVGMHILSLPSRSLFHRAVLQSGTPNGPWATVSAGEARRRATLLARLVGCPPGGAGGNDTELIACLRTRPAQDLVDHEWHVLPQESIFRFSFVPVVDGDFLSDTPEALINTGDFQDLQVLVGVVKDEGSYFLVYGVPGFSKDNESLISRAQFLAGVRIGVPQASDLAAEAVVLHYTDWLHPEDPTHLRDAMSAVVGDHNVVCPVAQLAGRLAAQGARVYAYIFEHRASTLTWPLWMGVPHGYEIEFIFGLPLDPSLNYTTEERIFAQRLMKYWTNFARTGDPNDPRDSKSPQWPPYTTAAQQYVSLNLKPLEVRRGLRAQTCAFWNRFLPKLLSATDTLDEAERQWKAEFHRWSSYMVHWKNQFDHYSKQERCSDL
Description: To determine the blank value (b), phosphate-buffered solution replaced the enzyme solution.

Work on `COCCN(CC1CCCN(Cc2ccccc2)C1)S(=O)(=O)c1ccc2ccccc2c1` (racemic) [(±)-N-((1-benzylpiperidin-3-yl)methyl)-N-(2-methoxyethyl)naphthalene-2-sulfonamide] yielded a fraction unbound at 4 h, 10 μM [1] of 0.04, a Papp A→B at 120 min, 100 μM (in vitro) of 30 ± 10.7 ×10⁻⁶ cm/s and a Papp B→A at 120 min, 100 μM (in vitro) of 29.1 ± 2.9 ×10⁻⁶ cm/s. The “Permeability class according to the biopharmaceutical classification system” value (Caco-2 cell monolayers) was “high” and the “IC50 + STD (μM) or % inhibition at 10 μM mAChE” value [2] was “n.i”.
